Test results reported in publication PMC9862168, “Inhibition of ANO1 by Cis- and Trans-Resveratrol and Their Anticancer Activity in Human Prostate Cancer PC-3 Cells” (International Journal of Molecular Sciences, 2023).

Target: T1, ANO1 (Homo sapiens, UniProt Q5XXA6)
T1 sequence (Q5XXA6 1-986): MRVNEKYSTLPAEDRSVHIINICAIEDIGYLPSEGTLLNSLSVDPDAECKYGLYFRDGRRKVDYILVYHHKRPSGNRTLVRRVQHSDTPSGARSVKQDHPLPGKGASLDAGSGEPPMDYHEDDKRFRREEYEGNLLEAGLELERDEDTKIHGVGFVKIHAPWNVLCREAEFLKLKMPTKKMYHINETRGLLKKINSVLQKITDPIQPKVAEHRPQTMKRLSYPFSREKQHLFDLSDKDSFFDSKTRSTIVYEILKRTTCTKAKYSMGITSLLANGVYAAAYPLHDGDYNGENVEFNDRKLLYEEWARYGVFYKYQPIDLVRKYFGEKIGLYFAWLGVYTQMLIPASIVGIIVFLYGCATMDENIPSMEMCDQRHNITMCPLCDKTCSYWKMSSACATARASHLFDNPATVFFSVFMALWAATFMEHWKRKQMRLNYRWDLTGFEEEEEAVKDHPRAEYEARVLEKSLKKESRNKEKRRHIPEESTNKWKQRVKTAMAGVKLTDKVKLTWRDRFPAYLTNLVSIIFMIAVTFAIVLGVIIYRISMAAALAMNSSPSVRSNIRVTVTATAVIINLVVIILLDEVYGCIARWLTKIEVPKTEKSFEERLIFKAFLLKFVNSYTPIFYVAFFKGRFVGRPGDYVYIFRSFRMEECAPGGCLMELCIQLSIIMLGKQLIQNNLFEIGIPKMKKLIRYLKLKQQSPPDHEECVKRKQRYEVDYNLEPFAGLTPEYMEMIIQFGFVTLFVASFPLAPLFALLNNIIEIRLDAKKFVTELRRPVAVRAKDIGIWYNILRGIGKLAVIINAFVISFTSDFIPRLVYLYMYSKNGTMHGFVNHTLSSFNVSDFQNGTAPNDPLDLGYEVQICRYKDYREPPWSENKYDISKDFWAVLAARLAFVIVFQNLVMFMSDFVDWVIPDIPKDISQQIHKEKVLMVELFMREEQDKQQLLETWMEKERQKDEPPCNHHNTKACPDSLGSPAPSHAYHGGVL
Experiment: YFP fluorescence quenching in FRT cells expressing human ANO1; also Ussing chamber and whole-cell patch clamp in HEK293T
Type: cell-based

| Structure (SMILES) | IC50 [µM] |
| --- | --- |
| Oc1ccc(/C=C\c2cc(O)cc(O)c2)cc1 [cis-resveratrol] | 10.6 |
| Oc1ccc(/C=C/c2cc(O)cc(O)c2)cc1 [trans-resveratrol] | 102 |
